Reference: DBAASP
≈ marks a conversion by molar mass, not a printed value. Where “and” joins values, the source holds several entries; their conditions need not be identical. Equal entries are not always repeated. Each block holds one compound with its values, some of them ahead of it.

Columns and labels:
Experiment in all cases: ≥ marks a high value that may be exact or a test limit, other limits are often not marked, values filed in µg/mL are converted to µM
Bacillus cereus = system: Bacillus cereus
Escherichia coli = system: Escherichia coli
Staphylococcus aureus = system: Staphylococcus aureus
[1] = system: Escherichia coli ATCC 25922
[2] = system: Staphylococcus aureus ATCC 33591
[3] = system: Staphylococcus aureus USA 300
[4] = system: Klebsiella pneumoniae ATCC 13883
[5] = system: Pseudomonas aeruginosa PAO1
Bacillus subtilis = system: Bacillus subtilis
Salmonella typhimurium = system: Salmonella typhimurium
[6] = system: Enterococcus faecalis ATCC 29212
[7] = system: Salmonella enterica subsp. enterica serovar Pullorum C79-13
[8] = system: Salmonella enterica subsp. enterica serovar Typhimurium C77-31
[9] = system: Staphylococcus aureus ATCC 29213
[10] = system: Staphylococcus epidermidis ATCC 12228
Escherichia coli UB1005 = system: Escherichia coli UB1005
[11] = system: Pseudomonas aeruginosa ATCC 27853
[12] = system: Salmonella enterica subsp. enterica serovar Typhimurium ATCC 14028
[13] = system: Acinetobacter baumannii ATCC 19606
[14] = system: Staphylococcus aureus ATCC 25923
Acinetobacter baumannii = system: Acinetobacter baumannii
Klebsiella pneumoniae = system: Klebsiella pneumoniae

MIC (Bacillus cereus): ≥ 116 µM | MIC (Escherichia coli): 14.5 µM (≈ 32 µg/mL) | MIC (Staphylococcus aureus): 116 µM (≈ 256 µg/mL)
SMILES: CC(C)C[C@H](NC(=O)[C@@H](N)Cc1ccccc1)C(=O)NCC(=O)N[C@@H](CCCCN)C(=O)N[C@H](C(=O)N[C@@H](Cc1ccccc1)C(=O)N[C@@H](CCCCN)C(=O)N[C@@H](CCCCN)C(=O)N[C@@H](C)C(=O)N[C@H](C(=O)N[C@@H](CCCCN)C(=O)N[C@H](C(=O)N[C@@H](Cc1ccccc1)C(=O)N1CCC[C@H]1C(=O)N[C@@H](C)C(=O)N[C@H](C(=O)N[C@@H](Cc1ccccc1)C(=O)NCC(=O)N[C@@H](CCCCN)C(=O)N[C@H](C(=O)O)C(C)C)C(C)C)C(C)C)C(C)C)C(C)C [FLGKVFKKAVKVFPAVFGKV]

MIC (Bacillus cereus): ≥ 125 µM | MIC (Escherichia coli): > 125 µM | MIC (Staphylococcus aureus): > 125 µM
SMILES: CC(C)C[C@H](NC(=O)[C@@H](N)Cc1ccccc1)C(=O)NCC(=O)N[C@H](C(=O)N[C@H](C(=O)N[C@@H](Cc1ccccc1)C(=O)N[C@@H](CCCCN)C(=O)NCC(=O)N[C@@H](C)C(=O)N[C@@H](CO)C(=O)N[C@@H](CCCCN)C(=O)N[C@H](C(=O)N[C@@H](Cc1ccccc1)C(=O)N1CCC[C@H]1C(=O)N[C@@H](C)C(=O)N[C@H](C(=O)N[C@H](C(=O)NCC(=O)N[C@@H](CCCCN)C(=O)N[C@H](C(=O)O)C(C)C)C(C)C)C(C)C)C(C)C)C(C)C)C(C)C [FLGVVFKGASKVFPAVVGKV]

MIC (Bacillus cereus): ≥ 118 µM | MIC (Escherichia coli): > 118 µM | MIC (Staphylococcus aureus): > 118 µM
SMILES: CC(C)C[C@H](NC(=O)[C@H](CCCCN)NC(=O)[C@H](Cc1ccccc1)NC(=O)[C@@H](NC(=O)[C@@H](NC(=O)CNC(=O)[C@H](CC(C)C)NC(=O)[C@@H](N)Cc1ccccc1)C(C)C)C(C)C)C(=O)N[C@@H](C)C(=O)N[C@H](C(=O)N[C@@H](CCCCN)C(=O)N[C@H](C(=O)N[C@@H](Cc1ccccc1)C(=O)N1CCC[C@H]1C(=O)N[C@@H](C)C(=O)N[C@H](C(=O)N[C@@H](Cc1ccccc1)C(=O)NCC(=O)N[C@@H](CCCCN)C(=O)N[C@H](C(=O)O)C(C)C)C(C)C)C(C)C)C(C)C [FLGVVFKLAVKVFPAVFGKV]

MIC [1]: > 256 µM | MIC [2]: ≥ 256 µM
SMILES: CSCC[C@H](NC(=O)[C@H](CCCN=C(N)N)NC(=O)[C@H](CCCN=C(N)N)NC(=O)[C@H](CC(N)=O)NC(=O)[C@H](CCC(N)=O)NC(=O)[C@@H](N)Cc1ccccc1)C(=O)N[C@@H](CCCCN)C(=O)N[C@@H](Cc1c[nH]c2ccccc12)C(=O)N[C@@H](CCCCN)C(=O)N[C@@H](CCCCN)C(N)=O [FQNRRMKWKK]

MIC [3]: 12.5 µM (≈ 25.6 µg/mL)
SMILES: CC[C@H](C)[C@H](NC(=O)[C@H](CCCN=C(N)N)NC(=O)[C@H](CCC(N)=O)NC(=O)[C@@H](NC(=O)[C@@H](NC(=O)[C@H](CCC(N)=O)NC(=O)[C@H](CCC(N)=O)NC(=O)[C@H](Cc1ccccc1)NC(=O)CN)[C@@H](C)CC)C(C)C)C(=O)N[C@@H](CCCCN)C(=O)N[C@@H](CC(=O)O)C(=O)N[C@@H](Cc1ccccc1)C(=O)N[C@@H](CC(C)C)C(=O)N[C@@H](CCC(N)=O)C(=O)N[C@@H](CC(N)=O)C(=O)N[C@@H](CC(C)C)C(=O)N[C@H](C(N)=O)C(C)C [GFQQIVQRIKDFLQNLV]

MIC [1]: > 25 µM | MIC [4]: 25 µM (≈ 33.5 µg/mL) | MIC [5]: > 25 µM | MIC [3]: 3.1 µM (≈ 4.15 µg/mL)
SMILES: CC(C)C[C@H](NC(=O)[C@H](CC(C)C)NC(=O)[C@H](CCCCN)NC(=O)CNC(=O)[C@H](CC(C)C)NC(=O)[C@H](CC(C)C)NC(=O)[C@H](CC(C)C)NC(=O)[C@H](CC(C)C)NC(=O)[C@H](CO)NC(=O)[C@H](CO)NC(=O)[C@H](CC(C)C)NC(=O)[C@H](CC(C)C)NC(=O)CN)C(N)=O [GLLSSLLLLGKLL]

MIC (Bacillus subtilis): 4 µM (≈ 7.16 µg/mL) | MIC (Escherichia coli): 8 µM (≈ 14.3 µg/mL) | MIC (Salmonella typhimurium): 4 µM (≈ 7.16 µg/mL) | MIC (Staphylococcus aureus): 8 µM (≈ 14.3 µg/mL)
SMILES: CC[C@H](C)[C@H](NC(=O)[C@H](CCCN=C(N)N)NC(=O)[C@@H](NC(=O)[C@@H](NC(=O)[C@@H](NC(=O)CN)C(C)C)C(C)C)C(C)C)C(=O)NCC(=O)N[C@@H](CCCN=C(N)N)C(=O)N[C@H](C(=O)N[C@H](C(=O)N[C@H](C(=O)N[C@@H](CCCN=C(N)N)C(=O)NCC(=O)N[C@H](C(=O)N[C@@H](CCCN=C(N)N)C(=O)N[C@@H](CCCN=C(N)N)C(N)=O)C(C)C)C(C)C)[C@@H](C)CC)C(C)C [GVVVRIGRVIVRGVRR]

MIC [1]: > 25 µM | MIC [4]: 25 µM (≈ 33.5 µg/mL) | MIC [5]: > 25 µM | MIC [3]: 1.6 µM (≈ 2.14 µg/mL)
SMILES: CC(C)C[C@H](NC(=O)[C@H](CC(C)C)NC(=O)[C@H](CCCCN)NC(=O)[C@H](CC(C)C)NC(=O)CNC(=O)[C@H](CC(C)C)NC(=O)[C@H](CO)NC(=O)[C@H](CC(C)C)NC(=O)[C@H](CC(C)C)NC(=O)[C@H](CO)NC(=O)CNC(=O)[C@H](CC(C)C)NC(=O)[C@@H](N)CC(C)C)C(N)=O [LLGSLLSLGLKLL]

MIC [6]: 4 µM (≈ 12.1 µg/mL) | MIC [1]: 4 µM (≈ 12.1 µg/mL) | MIC [7]: 16 µM (≈ 48.3 µg/mL) | MIC [8]: ≥ 128 µM | MIC [9]: 32 µM (≈ 96.6 µg/mL) | MIC [10]: 32 µM (≈ 96.6 µg/mL)
SMILES: CC(C)C[C@H](NC(=O)[C@@H](NC(=O)[C@@H](NC(=O)[C@@H](N)CC(C)C)C(C)C)[C@@H](C)O)C(=O)N[C@H](C(=O)N[C@@H](Cc1ccccc1)C(=O)N[C@H](C(=O)NCC(=O)NCC(=O)NCC(=O)N[C@@H](Cc1c[nH]c2ccccc12)C(=O)N[C@@H](CCCCN)C(=O)N[C@@H](Cc1c[nH]c2ccccc12)C(=O)N[C@@H](CCCCN)C(=O)N[C@@H](Cc1c[nH]c2ccccc12)C(=O)N[C@@H](CCCCN)C(=O)N[C@@H](CC(N)=O)C(=O)NCC(=O)N[C@@H](CCCCN)C(=O)N[C@@H](Cc1c[nH]c2ccccc12)C(=O)N[C@@H](CCCCN)C(=O)N[C@@H](Cc1c[nH]c2ccccc12)C(=O)N[C@@H](CCCCN)C(=O)N[C@@H](Cc1c[nH]c2ccccc12)C(=O)O)C(C)C)C(C)C [LVTLVFVGGGWKWKWKNGKWKWKW]

MIC [6]: 16 µM (≈ 32.5 µg/mL) | MIC (Escherichia coli UB1005): 16 µM (≈ 32.5 µg/mL) | MIC [11]: 32 µM (≈ 65 µg/mL) | MIC [7]: 16 µM (≈ 32.5 µg/mL) | MIC [12]: 32 µM (≈ 65 µg/mL) | MIC [8]: ≥ 32 µM | MIC [10]: 16 µM (≈ 32.5 µg/mL)
SMILES: CC[C@H](C)[C@H](NC(=O)[C@H](CCCCN)NC(=O)[C@H](CCCN=C(N)N)NC(=O)[C@H](CC(C)C)NC(=O)[C@H](Cc1ccccc1)NC(=O)[C@H](CCCN=C(N)N)NC(=O)CNC(=O)[C@H](Cc1ccccc1)NC(=O)[C@@H](N)CCCN=C(N)N)C(=O)N[C@@H](CCCN=C(N)N)C(=O)N[C@@H](CCCN=C(N)N)C(=O)N[C@@H](Cc1ccccc1)C(=O)N[C@@H](CCCN=C(N)N)C(=O)N1CCC[C@H]1C(=O)N[C@@H](CCCCN)C(N)=O [RFGRFLRKIRRFRPK]

MIC [13]: 6.2 µM (≈ 13 µg/mL) | MIC [4]: 2.6 µM (≈ 5.44 µg/mL) | MIC [5]: 2.5 µM and 5.2 µM | MIC [12]: 1.5 µM (≈ 3.14 µg/mL) | MIC [14]: 26.3 µM and 30 µM
SMILES: CC(C)C[C@H](NC(=O)[C@H](CCCN=C(N)N)NC(=O)[C@H](CCCN=C(N)N)NC(=O)[C@H](C)NC(=O)[C@H](Cc1c[nH]c2ccccc12)NC(=O)CNC(=O)[C@H](CCCN=C(N)N)NC(=O)[C@@H](N)CCCN=C(N)N)C(=O)N[C@@H](C)C(=O)N[C@@H](Cc1ccccc1)C(=O)N[C@@H](C)C(=O)N[C@@H](Cc1ccccc1)C(=O)N[C@@H](C)C(=O)N[C@@H](Cc1ccccc1)C(=O)NCC(=O)N[C@@H](CCCN=C(N)N)C(=O)N[C@@H](CCCN=C(N)N)C(N)=O [RRGWARRLAFAFAFGRR]

MIC (Acinetobacter baumannii): 3.2 µM (≈ 6.09 µg/mL) | MIC [1]: 15.1 µM and 26.6 µM | MIC [4]: 30 µM (≈ 57.1 µg/mL) | MIC (Klebsiella pneumoniae): 1.3 µM (≈ 2.47 µg/mL) | MIC [14]: > 30 µM
SMILES: CC(C)C[C@H](NC(=O)[C@H](CCCN=C(N)N)NC(=O)[C@H](CCCN=C(N)N)NC(=O)[C@H](C)NC(=O)[C@H](Cc1c[nH]c2ccccc12)NC(=O)CNC(=O)[C@H](CCCN=C(N)N)NC(=O)[C@@H](N)CCCN=C(N)N)C(=O)N[C@H](C(=O)N[C@@H](Cc1ccccc1)C(=O)N[C@@H](C)C(=O)N[C@@H](Cc1ccccc1)C(=O)NCC(=O)N[C@@H](CCCN=C(N)N)C(=O)N[C@@H](CCCN=C(N)N)C(N)=O)C(C)C [RRGWARRLVFAFGRR]

MIC (Bacillus cereus): ≥ 122 µM | MIC (Escherichia coli): > 122 µM
SMILES: CC(C)C[C@H](NC(=O)CNC(=O)[C@H](CCCCN)NC(=O)[C@@H](NC(=O)[C@H](CC(C)C)NC(=O)[C@@H](NC(=O)[C@H](Cc1ccccc1)NC(=O)[C@H](Cc1ccccc1)NC(=O)[C@H](CCCCN)NC(=O)[C@H](CCCCN)NC(=O)[C@H](C)NC(=O)[C@@H](NC(=O)[C@@H](N)C(C)C)C(C)C)C(C)C)C(C)C)C(=O)N[C@@H](C)C(=O)N1CCC[C@H]1C(=O)N[C@H](C(=O)N[C@@H](CC(C)C)C(=O)N[C@@H](CO)C(=O)N1CCC[C@H]1C(=O)N[C@@H](CO)C(=O)O)C(C)C [VVAKKFFVLVKGLAPVLSPS]
